From patent publication US11370786B2, “GLS1 inhibitors for treating disease” (Board of Regents, The University of Texas System, priority 2014, dated 2022)

Target: GLS1 (purified recombinant human GAC) (Homo sapiens (Human), UniProt O94925)
Experiment: GLS1 Enzymatic Activity Assay (dual-coupled glutamate oxidase/HRP Amplex UltraRed)
Assay type: biochemical
Conditions: not given

Sequence of GLS1 (purified recombinant human GAC) (O94925 other isoform, or with tags, fused parts or gaps): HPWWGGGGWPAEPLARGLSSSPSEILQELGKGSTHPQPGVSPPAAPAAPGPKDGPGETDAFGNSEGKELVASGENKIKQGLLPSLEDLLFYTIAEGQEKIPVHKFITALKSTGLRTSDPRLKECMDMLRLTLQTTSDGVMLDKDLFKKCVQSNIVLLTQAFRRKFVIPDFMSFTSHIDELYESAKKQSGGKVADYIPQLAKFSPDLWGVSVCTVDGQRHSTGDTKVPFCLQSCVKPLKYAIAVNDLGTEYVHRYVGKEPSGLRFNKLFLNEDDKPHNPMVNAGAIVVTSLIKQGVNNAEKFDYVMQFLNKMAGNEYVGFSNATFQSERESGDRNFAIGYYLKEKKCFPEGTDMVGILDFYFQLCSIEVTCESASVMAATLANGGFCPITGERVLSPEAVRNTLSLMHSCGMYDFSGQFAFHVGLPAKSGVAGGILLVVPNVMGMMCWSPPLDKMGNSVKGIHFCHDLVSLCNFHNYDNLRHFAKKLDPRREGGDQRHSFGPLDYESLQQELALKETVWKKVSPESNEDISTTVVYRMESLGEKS

Row | IC50 | SMILES
1 | < 100 nM | CNC(=O)c1cn(CCCCc2ccc(NC(=O)Cc3cc(-c4cc(F)ccc4C)ccn3)nn2)nn1 [Example 609, 1-(4-(6-(2-(4-(5-fluoro-2-methylphenyl)pyridin-2-yl)acetamido)pyridazin-3-yl)butyl)-N-methyl-1H-1,2,3-triazole-4-carboxamide]
2 | < 100 nM | CNC(=O)c1cn(CC(F)CCc2ccc(NC(=O)Cc3cc(OC(C)C(F)(F)F)ccn3)nn2)nn1 (stereo not shown) [Example 266, 1-(2-fluoro-4-(6-(2-(4-((1,1,1-trifluoropropan-2-yl)oxy)pyridin-2-yl)acetamido)pyridazin-3-yl)butyl)-N-methyl-1H-1,2,3-triazole-4-carboxamide]
3 | < 100 nM | CNC(=O)c1cn(CCCCc2ccc(NC(=O)Cc3cc(-c4cccc(Cl)c4OC(F)(F)F)ccn3)nn2)nn1 [Example 608, 1-(4-(6-(2-(4-(3-chloro-2-(trifluoromethoxy)phenyl)pyridin-2-yl)acetamido)pyridazin-3-yl)butyl)-N-methyl-1H-1,2,3-triazole-4-carboxamide]
4 | < 100 nM | O=C(Cc1ccccn1)Nc1ccc(CCCCn2cc(C(=O)NCc3cc(C(F)(F)F)ccn3)nn2)nn1 [Example 203, 1-(4-(6-(2-(pyridin-2-yl)acetamido)pyridazin-3-yl)butyl)-N-((4-(trifluoromethyl)pyridin-2-yl)methyl)-1H-1,2,3-triazole-4-carboxamide]
5 | < 100 nM | CNC(=O)c1cn(CCCCc2ccc(NC(=O)Cc3cncc(Br)c3)nn2)nn1 [Example 546, 1-(4-{6-[2-(5-bromopyridin-3-yl)acetamido]pyridazin-3-yl}butyl)-N-methyl-1H-1,2,3-triazole-4-carboxamide]
6 | < 100 nM | CNC(=O)c1cn(CCCCc2ccc(NC(=O)Cc3cc(C4CC4)ccn3)nn2)nn1 [Example 190, 1-(4-{6-[2-(4-cyclopropylpyridin-2-yl)acetamido]pyridazin-3-yl}butyl)-N-methyl-1H-1,2,3-triazole-4-carboxamide]
7 | < 100 nM | CNC(=O)c1cn(CCCCc2ccc(NC(=O)Cc3cc(Br)ccn3)nn2)nn1 [Example 200, 1-(4-(6-(2-(4-bromopyridin-2-yl)acetamido)pyridazin-3-yl)butyl)-N-methyl-1H-1,2,3-triazole-4-carboxamide]
8 | < 100 nM | CNC(=O)c1cn(CCCCc2ccc(NC(=O)Cc3cc(-c4ccc(F)cc4C(F)(F)F)ccn3)nn2)nn1 [Example 606, 1-(4-(6-(2-(4-(4-fluoro-2-(trifluoromethyl)phenyl)pyridin-2-yl)acetamido)pyridazin-3-yl)butyl)-N-methyl-1H-1,2,3-triazole-4-carboxamide]
9 | < 100 nM | CNC(=O)c1cn(CCCCc2ccc(NC(=O)Cc3cc(-c4cccc(OC(F)(F)F)c4F)ccn3)nn2)nn1 [Example 607, 1-(4-(6-(2-(4-(2-fluoro-3-(trifluoromethoxy)phenyl)pyridin-2-yl)acetamido)pyridazin-3-yl)butyl)-N-methyl-1H-1,2,3-triazole-4-carboxamide]
10 | < 100 nM | CNC(=O)c1cn(CCCCc2ccc(NC(=O)Cc3ccc(Cl)nc3)nn2)nn1 [Example 544, 1-(4-{6-[2-(6-chloropyridin-3-yl)acetamido]pyridazin-3-yl}butyl)-N-methyl-1H-1,2,3-triazole-4-carboxamide]
11 | < 100 nM | CNC(=O)c1cn(CCCCc2ccc(NC(=O)Cc3cc(Cl)ccn3)nn2)nn1 [Example 191, 1-(4-{6-[2-(4-chloropyridin-2-yl)acetamido]pyridazin-3-yl}butyl)-N-methyl-1H-1,2,3-triazole-4-carboxamide]

Row | SMILES | IC50
12 | CNC(=O)c1cn(CCCCc2ccc(NC(=O)Cc3cncc(OC4CC(F)(F)C4)c3)nn2)nn1 [Example 202, 1-(4-(6-(2-(5-(3,3-difluorocyclobutoxy)pyridin-3-yl)acetamido)pyridazin-3-yl)butyl)-N-methyl-1H-1,2,3-triazole-4-carboxamide] | < 100 nM
13 | O=C(Cc1cncc(OC2CC(F)(F)C2)c1)Nc1ccc(CCCCn2cc(C(=O)NCc3cc(C(F)(F)F)ccn3)nn2)nn1 [Example 230, 1-(4-(6-(2-(5-(3,3-difluorocyclobutoxy)pyridin-3-yl)acetamido)pyridazin-3-yl)butyl)-N-((4-(trifluoromethyl)pyridin-2-yl)methyl)-1H-1,2,3-triazole-4-carboxamide] | < 100 nM
14 | O=C(Cc1cncc(OC2CC(F)(F)C2)c1)Nc1ccc(CCCCn2cc(C(=O)NCc3ccccn3)nn2)nn1 [Example 231, 1-(4-(6-(2-(5-(3,3-difluorocyclobutoxy)pyridin-3-yl)acetamido)pyridazin-3-yl)butyl)-N-(pyridin-2-ylmethyl)-1H-1,2,3-triazole-4-carboxamide] | < 100 nM

Test system: A549 cells
Experiment: Proliferation Assay (A549 viability, Cell Titer Fluor, 72 hours)
Assay type: cell-based
Conditions: Homo sapiens, A549, 72 h
Protocol: A549 cells were routinely maintained in RPMI 1640 media (Gibco catalog number 11875-093) supplemented with 10% dialyzed fetal bovine serum using a humidified incubator (37° C., 5% CO2 and ambient O2). In preparation for the viability assay, cells were inoculated into 384-well black CulturPlates (Perkin Elmer) at a density of 1000 cells/well in a volume of 40 uL. Following a 24-hour incubation at 37° C., 5% CO2 and ambient O2, cells were treated with compound ([…]) in a final DMSO concentration of 0.5% (v/v). The microplates were then incubated for 72 hours (37° C., 5% CO2 and ambient O2). Cell Titer Fluor (Promega) was subsequently added (10 uL of 6× reagent) and mixed for 15 minutes at room temperature. The plates were then incubated for 30 minutes (37° C., 5% CO2 and ambient O2) and fluorescence was subsequently read on the Perkin Elmer Envision plate reader. IC50 values were calculated using a four-parameter logistic curve fit.

Row | EC50 | SMILES
15 | < 100 nM | O=C(NCc1cccc(OC(F)(F)F)c1)c1cn(CCCCn2cc(C(=O)NCc3ccc(C(F)(F)F)cn3)nn2)nn1 [Example 81, 1-{4-[4-({[3-(trifluoromethoxy)phenyl]methyl}carbamoyl)-1H-1,2,3-triazol-1-yl]butyl}-N-{[5-(trifluoromethyl)pyridin-2-yl]methyl}-1H-1,2,3-triazole-4-carboxamide]
16 | < 100 nM | O=C(NCc1cc(OC(F)(F)F)ccc1F)c1cn(CCC(F)Cn2cc(C(=O)NCc3ccccn3)nn2)nn1 (stereo not shown) [Example 369, 1-{2-fluoro-4-[4-({[2-fluoro-5-(trifluoromethoxy)phenyl]methyl}carbamoyl)-1H-1,2,3-triazol-1-yl]butyl}-N-(pyridin-2-ylmethyl)-1H-1,2,3-triazole-4-carboxamide]
